Measurements as given in ChEMBL document CHEMBL1130772, “New nonsteroidal androgen receptor modulators based on 4-(trifluoromethyl)-2(1H)-pyrrolidino[3,2-g] quinolinone” (Bioorg Med Chem Lett, 1998).

Experiments:
Format in all cases: functional, cell-based
Progesterone receptor = target: T1, Progesterone receptor (Homo sapiens, UniProt P06401); assay: Antagonistic activity against hPR in co-transfected CV-1 cell
T1 sequence (P06401 whole entry): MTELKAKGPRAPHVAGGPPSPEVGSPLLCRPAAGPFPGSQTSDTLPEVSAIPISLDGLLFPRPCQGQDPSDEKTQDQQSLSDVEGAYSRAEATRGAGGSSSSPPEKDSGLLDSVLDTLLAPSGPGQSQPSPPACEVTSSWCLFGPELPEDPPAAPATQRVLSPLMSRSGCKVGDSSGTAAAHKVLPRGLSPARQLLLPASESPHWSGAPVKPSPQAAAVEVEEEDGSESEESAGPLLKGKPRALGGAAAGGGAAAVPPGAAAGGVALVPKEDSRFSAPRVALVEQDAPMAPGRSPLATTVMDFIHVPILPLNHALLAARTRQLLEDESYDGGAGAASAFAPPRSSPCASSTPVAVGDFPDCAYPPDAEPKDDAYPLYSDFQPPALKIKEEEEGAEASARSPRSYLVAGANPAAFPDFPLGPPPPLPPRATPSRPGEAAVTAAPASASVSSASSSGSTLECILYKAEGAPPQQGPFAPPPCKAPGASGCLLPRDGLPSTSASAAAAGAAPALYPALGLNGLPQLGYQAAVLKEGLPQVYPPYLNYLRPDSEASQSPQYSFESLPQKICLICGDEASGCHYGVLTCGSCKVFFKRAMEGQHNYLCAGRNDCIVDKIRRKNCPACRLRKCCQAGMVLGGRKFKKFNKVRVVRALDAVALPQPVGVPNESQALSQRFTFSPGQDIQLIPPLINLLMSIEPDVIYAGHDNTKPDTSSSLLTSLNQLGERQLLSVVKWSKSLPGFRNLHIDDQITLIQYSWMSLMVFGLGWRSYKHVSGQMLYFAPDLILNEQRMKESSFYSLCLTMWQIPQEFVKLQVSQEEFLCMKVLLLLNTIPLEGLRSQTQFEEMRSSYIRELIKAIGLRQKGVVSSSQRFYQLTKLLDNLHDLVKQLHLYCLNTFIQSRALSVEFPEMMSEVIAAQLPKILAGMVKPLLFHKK

[1] = target: T2, Mineralocorticoid receptor (Homo sapiens, UniProt P08235); assay: Antagonistic activity against hMR in co-transfected CV-1 cell
T2 sequence (P08235 whole entry): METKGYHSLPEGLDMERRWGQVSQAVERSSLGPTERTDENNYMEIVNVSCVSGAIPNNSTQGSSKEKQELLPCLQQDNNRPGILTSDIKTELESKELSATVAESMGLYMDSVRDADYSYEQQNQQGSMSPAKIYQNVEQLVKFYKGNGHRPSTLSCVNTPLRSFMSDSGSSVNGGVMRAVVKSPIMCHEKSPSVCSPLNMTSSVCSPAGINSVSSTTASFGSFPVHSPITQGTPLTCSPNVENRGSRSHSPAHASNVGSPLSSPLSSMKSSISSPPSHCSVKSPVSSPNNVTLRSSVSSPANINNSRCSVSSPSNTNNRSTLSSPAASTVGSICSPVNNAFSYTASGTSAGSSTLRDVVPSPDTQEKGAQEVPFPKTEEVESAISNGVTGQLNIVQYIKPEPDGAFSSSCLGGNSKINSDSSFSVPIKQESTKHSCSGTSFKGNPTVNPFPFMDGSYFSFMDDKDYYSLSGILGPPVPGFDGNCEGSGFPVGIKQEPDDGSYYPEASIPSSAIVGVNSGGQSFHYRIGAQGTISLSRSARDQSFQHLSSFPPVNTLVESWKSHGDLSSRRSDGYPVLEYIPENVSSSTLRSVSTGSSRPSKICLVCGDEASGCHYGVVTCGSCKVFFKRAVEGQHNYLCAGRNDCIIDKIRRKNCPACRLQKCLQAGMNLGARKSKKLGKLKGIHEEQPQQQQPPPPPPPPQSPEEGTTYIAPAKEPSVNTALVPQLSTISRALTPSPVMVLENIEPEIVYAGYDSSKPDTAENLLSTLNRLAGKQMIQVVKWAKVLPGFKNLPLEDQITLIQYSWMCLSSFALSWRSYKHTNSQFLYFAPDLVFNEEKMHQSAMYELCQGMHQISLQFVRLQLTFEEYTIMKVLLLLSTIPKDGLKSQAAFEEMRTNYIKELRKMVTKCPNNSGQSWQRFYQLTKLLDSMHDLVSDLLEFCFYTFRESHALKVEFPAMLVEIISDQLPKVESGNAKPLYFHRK

Glucocorticoid receptor = target: T3, Glucocorticoid receptor (Homo sapiens, UniProt P04150); assay: Antagonistic activity against Glucocorticoid receptor in co-transfected CV-1 cell
T3 sequence (P04150 whole entry): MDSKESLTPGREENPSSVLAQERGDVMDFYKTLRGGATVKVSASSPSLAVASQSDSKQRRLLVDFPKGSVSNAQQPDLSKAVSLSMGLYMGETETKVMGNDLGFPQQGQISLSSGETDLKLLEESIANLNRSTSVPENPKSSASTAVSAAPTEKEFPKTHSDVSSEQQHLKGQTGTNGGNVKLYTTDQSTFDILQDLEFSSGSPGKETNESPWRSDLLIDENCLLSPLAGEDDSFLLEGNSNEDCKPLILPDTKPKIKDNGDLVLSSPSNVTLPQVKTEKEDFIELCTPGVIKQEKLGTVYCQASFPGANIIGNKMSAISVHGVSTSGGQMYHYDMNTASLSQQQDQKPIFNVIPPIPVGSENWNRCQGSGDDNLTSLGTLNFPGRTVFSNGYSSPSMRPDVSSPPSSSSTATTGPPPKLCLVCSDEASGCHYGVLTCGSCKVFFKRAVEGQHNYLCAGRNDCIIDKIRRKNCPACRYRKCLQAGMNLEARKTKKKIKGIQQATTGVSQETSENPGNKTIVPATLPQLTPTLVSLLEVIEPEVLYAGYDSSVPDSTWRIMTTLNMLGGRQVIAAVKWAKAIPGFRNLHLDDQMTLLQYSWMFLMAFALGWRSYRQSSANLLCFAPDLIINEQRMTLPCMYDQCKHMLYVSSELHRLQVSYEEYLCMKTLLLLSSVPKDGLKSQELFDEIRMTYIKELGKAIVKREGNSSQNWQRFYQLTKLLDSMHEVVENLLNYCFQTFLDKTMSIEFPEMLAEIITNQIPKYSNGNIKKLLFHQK

Estrogen receptor = Estrogen receptor (Homo sapiens, UniProt Q92731+P03372); assay: Antagonistic activity against Estrogen receptor in co-transfected CV-1 cell

SMILES	IC50 (Progesterone receptor) [µM]	IC50 [1] [µM]	IC50 (Glucocorticoid receptor) [µM]	IC50 (Estrogen receptor) [µM]
CC1(C)CCC[C@]2(C)c3cc4c(C(F)(F)F)cc(O)nc4cc3N[C@H]12	0.43	0.57	1.4	> 10
CN1c2cc3c(cc2[C@H]2CCCC[C@H]21)c(C(F)(F)F)cc(=O)n3C	1	> 10	> 10	> 10
C[C@H]1CC[C@H]2Nc3cc4c(cc3[C@H]2C1)c(C(F)(F)F)cc(=O)n4C	0.38	> 10	> 10	> 10
